According to US20260015364A1, “PIPERAZINE BRIDGE-SUBSTITUTED HETEROCYCLIC PYRIMIDINE COMPOUND” (MEDSHINE DISCOVERY INC., priority 2022, published 2026):

Experiments:
[1] = test system: GP2D human colon cancer cells with KRAS^G12D mutation; experiment: GP2D 3D CTG experiment (anti-proliferation); assay type: cell-based; conditions: 120 h, 5 days incubation
Source text: This experiment aims to verify the inhibitory effect of the compounds of the present disclosure on the proliferation of GP2D human colon cancer cells with KRAS^G12D mutation.
Cell line GP2D and DMEM medium were purchased from GIBCO, FBS was purchased from Hyclone, and L-glutamine was purchased from Invitrogen. The 96-well plate was purchased from Ultra Low Cluster. CellTiter-Glo® 3D Cell Viability Assay reagents (chemiluminescent 3D cell viability assay reagents) were purchased from Promega, and 2104 En Vision plate reader was purchased from PerkinElmer.
GP2D cells were cultured in an incubator at 37° C. with 5% CO2 under the conditions of DMEM+10% FBS+2 mM L-glutamine. Regular passaging was performed, and cells in the logarithmic growth phase were selected for plating. GP2D cells were seeded in a 96-well U-bottom cell culture plate, and each well of 135 μL cell suspension contained 6000 GP2D cells. The culture plate was cultured overnight in a 37° C., 5% CO2 incubator with 100% relative humidity. The test compound was diluted 5-fold to the eighth concentration using a pipette, ranging from 200 μM to 2.56 nM, and tested in duplicate. 78 μL of culture medium per well was added to an intermediate plate. […] A multimode microplate reader was used for reading. […]

[2] = test system: PANC04.03 cell subcutaneously transplanted tumors; experiment: In vivo pharmacodynamic experiment of PANC04.03 tumor model; design: species or system Balb/c Nude mice; conditions: p.o., BID, 28 days of administration
Procedure: In vivo pharmacodynamics of PANC04.03 cell subcutaneously transplanted tumors in Balb/c Nude mice model with human pancreatic cancer
Cell culture: Human pancreatic cancer PANC04.03 cells were cultured in monolayer in vitro. The culture conditions were RPMI-1640+15% FBS+10 units/mL insulin, and cultured in a 37° C., 5% carbon dioxide incubator. Routine digestion with trypsin-EDTA was performed twice a week for passaging. When the cell saturation reached 80% to 90% and the required quantity was reached, the cells were harvested, counted, and resuspended in an appropriate amount of PBS to obtain a cell suspension with a cell density of 25×10^6 cells/mL.
Cell inoculation: 0.2 mL (5×10^6 cells/mouse) of PANC04.03 cells were subcutaneously inoculated into the right back of each mouse.
Experimental operation: When the average tumor volume reached 190 mm^3, the mice were randomly divided into groups according to the tumor volume, with 6 animals in each group. The blank group was administered with a dose of 0, and the test group was orally administered with a dose of 30 mg/kg, 100 mg/kg, 150 mg/kg, and a volume of 10 μL/g, respectively, and was administered twice a day for 28 days.
Tumor diameters were measured twice a week with a vernier caliper. The formula for calculating tumor volume is: V=0.5a×b^2, wherein a and b represent the long and short diameters of the tumor, respectively.
The tumor inhibitory efficacy of the compound was evaluated by TGI (%) or relative tumor proliferation rate T/C (%). Relative tumor proliferation rate T/C (%)=TRTV/CRTV×100% (TRTV:RTV of treatment group; CRTV:RTV of negative control group). The relative tumor volume (RTV) was calculated based on the results of tumor measurements. The calculation formula is RTV=Vt/V0, where V0 is the average tumor volume measured at the beginning of administration in groups (i.e., D0), and Vt is the average tumor volume measured at a certain measurement. TRTV and CRTV used the data from the same day.
TGI (%) reflected the tumor growth inhibition rate. […]

[3] = test system: p-ERK in GP2D cells; experiment: p-ERK inhibition test of GP2D cells (HTRF); assay type: cell-based; conditions: Homo sapiens, 1 hour compound incubation
Procedure: • 1). GP2D cells are seeded in a transparent 96-well cell culture plate, with 80 μL of cell suspension per well and 8000 cells per well, and the cell plate is incubated in a carbon dioxide incubator at 37° C. overnight; • 2). 2 μL of the compound is added to 78 μL of cell culture medium; after mixing well, 20 μL of the compound solution is taken and added to the corresponding cell plate wells, and the cell plate is put back into the carbon dioxide incubator to incubate for another 1 hour; • 3). After the incubation is completed, the cell supernatant is discarded, and 50 μL of 1× cell lysate is added to each well, and incubated at room temperature for 30 minutes with shaking; • 4). Phospho-ERK1/2 Eu Cryptate antibody and Phospho-ERK1/2 d2 antibody are 20-fold diluted using detection buffer; • 5). […] After the incubation is completed, a multimode microplate reader is used to read HTRF excitation: 320 nm, emission: 615 nm, 665 nm; • 7). The IC50 of the test compound is calculated.
• 1). […] After the incubation was completed, a multimode microplate reader was used to read HTRF excitation: 320 nm, emission: 615 nm, 665 nm; • 7) The IC50 of the test compound was calculated.

SMILES: C#Cc1c(F)ccc2cc(N)cc(-c3ncc4c(N5CC6CCC(C5)N6)nc(OC[C@@]56CC(=C)CN5C[C@@H]5C[C@@H]56)nc4c3F)c12 (single isomer, unassigned) [Compound 3]
- IC50 [1]: 0.54 nM
- TGI ([2]; 30 mpk): 95.41%
- TGI ([2]; 100 mpk): 108.41%
- TGI ([2]; 150 mpk): 115.80%
- IC50 [3]: 2.4 nM
